{"source": "patent US7700136B2", "about": "“Scutellaria barbata extract for the treatment of cancer” (priority 2005, dated 2010)", "tested_on": "subcutaneous cancer xenografts", "format": "in vivo, mice", "conditions": "oral; BZL101 0.5 ml gavage every third day; cyclophosphamide 25 mg/Kg/day in drinking water; FIG. 6", "description": "As in Example 1, above, 10^5 cells were administered to each animal subcutaneously on Day 0. The animals were divided into four groups. The control group received only normal drinking water. The cyclophosphamide only group received 25 mg/Kg/day of cyclophosphamide in their drinking water."}
{"molecule": "O=P1(N(CCCl)CCCl)NCCCO1", "note": "(stereo not shown) [cyclophosphamide]", "values": [{"measurement": "tumor growth inhibition", "result": "inhibited tumor growth as compared to the control"}]}
